For seven compounds, MIC50 and MTC50 results are on record in ChEMBL document CHEMBL1131911, “Synthesis of 2-(2-adamantyl)piperidines and structure anti-influenza virus A activity relationship study using a combination of NMR spectroscopy and molecular modeling” (1999).

Experiment [1] concerns MDCK. Nature of the experiment: Anti-influenza virus activity was evaluated in Madin-Darby canine kidney (MDCK) cells against influenza A H2N2 strain (A2 Japan/305/57). Conditions: Canis lupus familiaris. It counts as functional.
Experiment [2] has as its system MDCK. Nature of the experiment: Anti-influenza virus activity was evaluated in Madin-Darby canine kidney (MDCK) cells against influenza A H3N2 (X31). The class given is functional. The conditions noted are these: Canis lupus familiaris.
Experiment [3] concerns MDCK. Nature of the experiment: Anti-influenza virus activity was evaluated in Madin-Darby canine kidney (MDCK) cells against influenza B (Hong Kong/5/72). The class given is functional. The conditions noted are these: Canis lupus familiaris.
The subject of experiment [4] is MDCK. Nature of the experiment: Concentration required to reduce the viability of MDCK cells. The class given is functional, Canis lupus familiaris.

The structures appear in SMILES notation. Converted amounts (≈) assume the structure as drawn. Where only a bound is given, the exact number is not on record here.

As to `NC(=O)c1ncn([C@@H]2O[C@H](CO)[C@@H](O)[C@H]2O)n1` [RIBAVIRIN], the MIC50 in the experiment with MDCK [1] came out at 31.1 µM (≈ 7.59 µg/mL); in the experiment on MDCK [2], 41 µM (≈ 10 µg/mL); in the experiment with MDCK [3] it was 41 µM (≈ 10 µg/mL). Further, the MTC50 in the experiment with MDCK [4] is >1025 µM.
In the case of `C1CCC(C2C3CC4CC(C3)CC2C4)NC1` (stereo unspecified), the figures for the MIC50 in the experiment on MDCK [1], with MDCK [2] and in the experiment with MDCK [3] were 7.8 µM (≈ 1.71 µg/mL), > 977 µM and > 977 µM, respectively. Moreover, the MTC50 with MDCK [4] was >977 µM.
Regarding `CC(N)C12CC3CC(CC(C3)C1)C2` (stereo unspecified) [RIMANTADINE], the MIC50 against MDCK [1] is 20.9 µM (≈ 3.75 µg/mL); in the experiment with MDCK [2] it was > 56 µM; in the experiment on MDCK [3] it was > 93 µM. For the same compound, in the experiment on MDCK [4], the MTC50 worked out at 1160 µM.
In the same order, the values of `C1CCN(CC2CC2)C(C2C3CC4CC(C3)CC2C4)C1` (stereo unspecified) are 143 µM (≈ 39.1 µg/mL), > 143 µM, > 143 µM and 977 µM.
In the same order, the values of `CCN1CCCCC1C1C2CC3CC(C2)CC1C3` (stereo unspecified) are > 28 µM, > 28 µM, > 28 µM and 143 µM.
For `CN1CCCCC1C1C2CC3CC(C2)CC1C3` (stereo unspecified), the MIC50 with MDCK [1], with MDCK [2] and in the experiment on MDCK [3] was > 143 µM in each case. Besides, the MTC50 with MDCK [4] was found to be 977 µM.
In turn, `NC12CC3CC(CC(C3)C1)C2` [AMANTADINE] registered an MIC50 against MDCK [1] of 28.3 µM (≈ 4.28 µg/mL). In addition, the MTC50 in the experiment on MDCK [4] stood at 1333 µM.
